In publication PMC11249626, “Fluorophore-Labeled Pyrrolones Targeting the Intracellular Allosteric Binding Site of the Chemokine Receptor CCR1” (ACS Pharmacology & Translational Science, 2024):

Molecular target: T1, CXCR2 (Homo sapiens, UniProt P25025)
T1 construct: host or cells: HEK293T, transient
T1 sequence (P25025 1-360): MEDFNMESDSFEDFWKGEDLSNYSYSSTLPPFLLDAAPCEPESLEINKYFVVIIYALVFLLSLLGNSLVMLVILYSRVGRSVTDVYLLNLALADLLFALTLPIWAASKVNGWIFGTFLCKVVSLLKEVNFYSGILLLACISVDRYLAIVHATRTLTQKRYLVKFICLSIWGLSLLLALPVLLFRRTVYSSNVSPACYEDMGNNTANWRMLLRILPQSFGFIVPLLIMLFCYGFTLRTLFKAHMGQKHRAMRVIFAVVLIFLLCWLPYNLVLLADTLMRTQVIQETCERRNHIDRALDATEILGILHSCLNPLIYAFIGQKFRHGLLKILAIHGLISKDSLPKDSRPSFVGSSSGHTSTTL
Experiment: NanoBRET-based assay for binding to the IABS of CXCR2, as previously reported
Conditions: up to a concentration of 20 μM
From the text: With 6 (Figure 1), a first lead structure for intracellular CCR1 inhibition that features an approximately 20-fold CCR1 over CCR2 selectivity was previously discovered by Ortiz Zacarías et al.([33]) In order to discover new chemotypes for selective CCR1 over CCR2 inhibition, we aimed to apply our novel NanoBRET competition binding assay for CCR1 in combination with our recently published CCR2 competition binding assay based on 7.[47] In our first attempt, we screened a small in-house library enriched with intracellular GPCR ligands and structural analogues thereof. […] Additionally, we tested 23 for binding to the IABS of CCR9 and CXCR2 using our recently reported NanoBRET-based assay platform (Figure 6C).[44],[45] In the course of these studies, we detected no binding of 23 to CCR9 and CXCR2 up to a concentration of 20 μM. Since cell lineage-dependent effects have been observed for CCR1 antagonists,[59] we studied the CCR1 over CCR2 selectivity of 23 by using a previously reported radioligand binding assay with membrane preparations from osteosarcoma (U2OS) cells stably expressing human CCR1 or CCR2.[33] […] In agreement with these previous reports,[33] we observed a reduction in CCR1 over CCR2 selectivity when moving from membrane-based binding assays to cell-based functional assays. […]

Binding to the IABS of CXCR2: no binding
SMILES: O=C(C1=C(O)C(=O)N(CCc2ccc(O)cc2)C1c1ccc(F)cc1)c1ccccc1 (racemic) [compound 23]
